Test results as given in patent US20180028617A1, “METHODS OF TREATING MILD BRAIN INJURY AND POST-TRAUMATIC STRESS DISORDER” (The Regents of the University of California, priority 2015, published 2018).

Legend:
[1] = test system: neutrophil oxidative burst in leukocytes isolated from brain tissue; assay: Oxidative burst (ROS, DHR 123 fluorescence by flow cytometry) in leukocytes isolated from brain tissue after mild brain injury by controlled cortical impact; assay type: in vivo, C57/B6 mice; conditions: for Oxidative burst in inflammatory cells following mBI (flow cytometry peak shift, FIG. 2): subcutaneous ghrelin, compared to untreated mBI, n=3 animals in each group
Experimental: FIG. 1 depicts principle of assaying oxidative burst within inflammatory cells. Dihydrorhodamine 123 (DHR 123) diffuses across the cell membrane. When it encounters reactive oxygen species (ROS), DHR 123 is oxidized and fluoresces green. The fluorescence is then measured and presented as arbitrary fluorescence unit (AFU), wherein higher intensity means greater oxidative burst and, therefore greater concentration of amount of ROS (See Chen, et al., Measurement of oxidative burst in neutrophils,” Methods Mol Biol., 844: 115-124 (2012); which is incorporated herein by reference in its entirety).
Ghrelin administration reduces oxidative burst in inflammatory cells following mBI. Since no well-accepted animal model exists for concussions, a very small cerebral lesion that closely mimics mBI is used as a model of mBI. C57/B6 mice anesthetized with 5% isoflurane in oxygen (1.7 L/min) are given 0.3 mg/kg buprenorphine subcutaneously for analgesia prior to infliction of the mild brain injury. Anesthesia is assessed by paw pinch reflex. After creating a burr hole through the dura with a dental drill, a lesion using a controlled cortical impactor (CCI) is used to create injury 1 mm lateral and posterior to the bregma (5.0 mm/sec at a depth of 1.0 mm).
Animals are separated into three treatment groups: 1) Sham, 2) mBI, and 3) mBI plus ghrelin. A variety of doses can be tested depending upon the particular ghrelin. Ghrelin can be obtained for example from Phoenix Pharmaceuticals, Inc. (Burlingame, Calif.). For example, 1 to 50 μg at one or more time points. As one example, treatment with subcutaneous ghrelin: 1 dose of 10 μg following mBI and additional dose 10 μg 1 hour after. Brain tissue is harvested at 2-8 hours, preferably about 6 hours post-injury. […] The fluorescence is then measured and presented as arbitrary fluorescence unit (AFU), wherein higher intensity means greater oxidative burst and, therefore greater concentration or amount of ROS. […] Oxidative burst, which is a marker for ROS, can be measured by flow cytometry (e.g., FL1 channel with 488-nm laser).

[2] = test system: blood brain barrier (BBB) vascular permeability; Aquaporin 4 (AQP-4); conditions: cited from earlier work

Gly-Ser-Ser-Phe-Leu-Ser-Pro-Glu-His-Gln-Arg-Val-Gln-Gln-Arg-Lys-Glu-Ser-Lys-Lys-Pro-Pro-Ala-Lys-Leu-Gln-Pro-Arg (GSSFLSPEHQRVQQRKESKKPPAKLQPR; printed: Gly-Ser-Ser-Phe-Leu-Ser-Pro-Glu-His-Gln-Arg-Val-Gln-Gln-Arg-Lys-Glu-Ser-Lys-Lys-Pro-Pro-Ala-Lys-Leu-Gln-Pro-Arg) [ghrelin, 28-amino acid peptide neuroendocrine hormone, endogenous ligand for growth hormone secretagogue receptor; can include octanoyl acylation; obtainable from Phoenix Pharmaceuticals]
Oxidative burst of ipsilateral whole brain following mild BI (mean fluorescence intensity) ([1]; mild BI + ghrelin (2 doses), subcutaneous 10 μg following mBI and 10 μg 1 hour after, vs 7963±2900 mild BI alone and 4624±1858 sham, p-value of 0.048, n=5): 3257 AFU
Oxidative burst in inflammatory cells following mBI (flow cytometry peak shift, FIG. 2) [1]: lower oxidative burst
Oxidative burst in inflammatory cells following mBI (flow cytometry peak shift, FIG. 2) ([1]; listed as Ghrelin): reduced the oxidative burst
Post-TBI up-regulation of Aquaporin 4 (AQP-4) [2]: prevents post-TBI up-regulation of Aquaporin 4
